Measured values as given in ChEMBL document CHEMBL3627619, “Synthesis and biological profiling of 6- or 7-(het)aryl-7-deazapurine 4'-C-methylribonucleosides” (Bioorg Med Chem, 2015).

Key:
A549 = test: Cytotoxicity against human A549 cells after 3 days by MTT assay; type: functional, cell-based; settings: A549, 72 h
[1] = Cytotoxicity against human K562-TAX cells after 3 days by MTT assay; type: functional, cell-based; settings: 72 h
K562 = test: Cytotoxicity against human K562 cells after 3 days by MTT assay; type: functional, cell-based; settings: K562, 72 h
[2] = Cytotoxicity against human CEM/DNR cells after 3 days by MTT assay; type: functional, cell-based; settings: 72 h
HCT-116 [3] = test: Cytotoxicity against human HCT116 cells after 3 days by MTT assay; type: functional, cell-based; settings: HCT-116, 72 h
Hepatitis C virus = test: Antiviral activity against Hepatitis C virus subtype 1b replicon infected in human HuH7 cells; type: functional, cell-based, Hepacivirus hominis; settings: genotype 1b, Huh-7
[4] = Cytotoxicity against human BJ cells after 3 days by MTT assay; type: cell-based
HCT-116 [5] = test: Cytotoxicity against p53 deficient human HCT116 cells after 3 days by MTT assay; type: functional, cell-based; settings: HCT-116, 72 h
[6] = Cytotoxicity against human MRC5 cells after 3 days by MTT assay; type: cell-based
dengue virus type 2 = test: Antiviral activity against DENV2 infected in African green monkey Vero cells; type: functional, organism-based
[7] = Cytotoxicity against African green monkey Vero cells; type: cell-based; settings: chlorocebus sabaeus
CCRF-CEM = test: Cytotoxicity against human CCRF-CEM cells after 3 days by MTT assay; type: functional, cell-based; settings: 72 h
[8] = Cytotoxicity against human HuH7 cells; type: cell-based, Huh-7
[9] = Selectivity index, ratio of CC50 for human HuH7 cells to EC50 for Hepatitis C virus subtype 1b replicon infected in human HuH7 cells; type: toxicity, cell-based, Huh-7; settings: read-out: Ratio CC50/EC50

EC50 (Hepatitis C virus) [µM]	EC50 (dengue virus type 2) [µM]	Structure (SMILES)	IC50 (A549) [µM]	IC50 [1] [µM]	IC50 (K562) [µM]	IC50 [2] [µM]	IC50 (HCT-116 [3]) [µM]	CC50 at 72 h [4] [µM]	IC50 (HCT-116 [5]) [µM]	CC50 at 72 h [6] [µM]	CC50 [7] [µM]	IC50 (CCRF-CEM) [µM]	CC50 [8] [µM]	selectivity ratio [9]
16.5	> 50	CCOC(=O)[C@H](C)NP(=O)(OC[C@@]1(C)O[C@@H](n2ccc3c(-c4ccccc4)ncnc32)[C@H](O)[C@@H]1O)Oc1ccccc1 (stereo not given in full)	25.9	35.4	29.9	43.6	22.2	75.3	22.8	108	> 50	17.4	> 44	
17.6	> 50	CCOC(=O)[C@H](C)NP(=O)(OC[C@@]1(C)O[C@@H](n2ccc3c(-c4ccco4)ncnc32)[C@H](O)[C@@H]1O)Oc1ccccc1 (stereo not given in full)									> 50		27.9	
23.2		CCOC(=O)[C@H](C)NP(=O)(OC[C@@]1(C)O[C@@H](n2cc(-c3cccs3)c3c(N)ncnc32)[C@H](O)[C@@H]1O)Oc1ccccc1 (stereo not given in full)											13	
> 44		CCOC(=O)[C@H](C)NP(=O)(OC[C@@]1(C)O[C@@H](n2cc(-c3ccco3)c3c(N)ncnc32)[C@H](O)[C@@H]1O)Oc1ccccc1 (stereo not given in full)											20.8	
18		CCOC(=O)[C@H](C)NP(=O)(OC[C@@]1(C)O[C@@H](n2cc(-c3ccccc3)c3c(N)ncnc32)[C@H](O)[C@@H]1O)Oc1ccccc1 (stereo not given in full)											9.1	
3.32		CCOC(=O)[C@H](C)NP(=O)(OC[C@@]1(C)O[C@@H](n2ccc3c(-c4cccs4)ncnc32)[C@H](O)[C@@H]1O)Oc1ccccc1 (stereo not given in full)	22.2	33.6	22.9	43.1	19.4	83.1	22	106		12.3	3.64	

Second part, the compound before the results:

Structure (SMILES)	EC50 (Hepatitis C virus) [µM]	EC50 (dengue virus type 2) [µM]	IC50 (A549) [µM]	IC50 [1] [µM]	IC50 (K562) [µM]	IC50 [2] [µM]	IC50 (HCT-116 [3]) [µM]	CC50 at 72 h [4] [µM]	IC50 (HCT-116 [5]) [µM]	CC50 at 72 h [6] [µM]	CC50 [7] [µM]	IC50 (CCRF-CEM) [µM]	CC50 [8] [µM]	selectivity ratio [9]
C[C@]1(CO)O[C@@H](n2cc(-c3cccs3)c3c(N)ncnc32)[C@H](O)[C@@H]1O	17.9	> 50									> 50		> 44	
C#Cc1cn([C@@H]2O[C@](C)(CO)[C@@H](O)[C@H]2O)c2ncnc(N)c12	6.27	4.59	9.55	27.4	31.1	38.4	8.79	126	10.2	125	13.4	30.3	32.2	
C[C@]1(CO)O[C@@H](n2cc(-c3cc4ccccc4o3)c3c(N)ncnc32)[C@H](O)[C@@H]1O	4.48	10.1	7.13	8.82	9.64	8.94	9.75	104	10.7	83.7	27	16.6	31.1	
C[C@]1(CO)O[C@@H](n2cc(-c3ccsc3)c3c(N)ncnc32)[C@H](O)[C@@H]1O	40.6	> 50									> 50		> 44	
C[C@]1(CO)O[C@@H](n2ccc3c(-c4cc5ccccc5o4)ncnc32)[C@H](O)[C@@H]1O	7.62	> 50									> 50		> 44	
C[C@]1(CO)O[C@@H](n2cc(I)c3c(N)ncnc32)[C@H](O)[C@@H]1O	3.75	5.55	5.92	9.46	20.4	27.9	5.25	42.4	5.87	40.8	8.08	10.2	27.1	7.2
C[C@]1(CO)O[C@@H](n2cc(-c3ccco3)c3c(N)ncnc32)[C@H](O)[C@@H]1O	20	> 50									> 50		> 44	
